Experimental data published in patent publication US20240398767A1, “INHIBITORS OF THE MTDH-SND1 PROTEIN COMPLEX FOR CANCER THERAPY” (The Trustees of Princeton University, priority 2021, published 2024).

Columns and labels:
Caco-2 cells = experiment: Caco-2 cell based permeability test; assay type: in vitro ADME; settings: 5 μM, A-to-B and B-to-A, 120 min
Experimental: FIG. 11A, Caco-2 cells were employed to test cell permeability of C26-A2 and A6. 5 μM of compounds were dosed on both apical side (A-to-B) and basolateral side (B-to-A). Samples were taken from the donor and receiver chambers at 120 min after treatment. All samples were assayed by LC-MS/MS using electrospray ionization. The apparent permeability (Papp) and percent recovery were calculated.
C26s cell permeability test. The cell permeability of C26-A2 and A6 were determined with monolayer of Caco-2 cells with both the apical-to-basolateral (A-to-B) and basolateral-to-apical (B-to-A) directions by Absorption Systems LLC Detailed protocol can be found in previous studies.

[1] = test system: C3;UBC-CreERT+/-;Mtdhfl/fl tumor cells; experiment: Tumorsphere assay, C3;UBC-CreERT+/-;Mtdhfl/fl tumor cells; assay type: cell-based, mouse; settings: with or without 4-OHT pre-treatment
Experimental: (§1) For FIGS. 11B-11E, 50 k per well of cells were seeded and treated with indicated compounds the next day. 5 days after treatment, sphere number and size were assessed and normalized to vehicle control group. Data represent mean±SEM. n=3 independent experiments. Significance determined by one-way ANOVA analysis with Dunnett's test for multiple comparisons.
FIG. 11B, C3; UBC-Cre^ERT+/−;Mtdh^fl/fl tumor cells (FIGS. 11D, 11E) without 5 days of 0.02 μg/ml 4-OHT pre-treatment were subjected to the tumorsphere assay.
FIG. 11C, C3; UBC-Cre^ERT+/−;Mtdh^fl/fl tumor cells with 5 days of 0.02 μg/ml 4-OHT pre-treatment were subjected to the tumorsphere assay.

[2] = test system: Wnt;UBC-CreERT+/-;Mtdhfl/fl tumor cells; experiment: Tumorsphere assay, Wnt;UBC-CreERT+/-;Mtdhfl/fl tumor cells; assay type: cell-based, mouse; settings: with or without 4-OHT pre-treatment
Experimental: as §1
FIG. 11D, Wnt;UBC-Cre^ERT+/−;Mtdh^fl/fl tumor cells without 5 days of 0.02 μg/ml 4-OHT pre-treatment were subjected to the tumorsphere assay.
FIG. 11E, Wnt;UBC-Cre^ERT+/−;Mtdh^fl/fl tumor cells with 5 days of 0.02 μg/ml 4-OHT pre-treatment were subjected to the tumorsphere assay.

[3] = test system: PyMT;UBC-CreERT+/-;Mtdhfl/fl wild type tumor cells; experiment: Tumorsphere assay, PyMT;UBC-CreERT+/-;Mtdhfl/fl wild type tumor cells; assay type: cell-based, mouse; settings: 5 days after treatment
Experimental: FIG. 4C, PyMT;UBC-Cre^ERT+/−;Mtdh^fl/fl cells without 5 days of 0.02 μg/ml 4-OHT pre-treatment was employed for tumorsphere assay. 50 k per well of cells were seed and treated with indicated compounds the next day. 5 days after treatment, sphere number and size were assessed and normalized to vehicle control group. Data represent mean±SEM. n=3 independent experiments. Significance determined by one-way ANOVA analysis with Sidak's test for multiple comparisons.
Next, PyMT; UBC-Cre^ERT+/−;Mtdh^fl/fl tumor cells: 1) with or without Mtdh pre-depletion; 2) with or without endogenous Snd1 knockdown; or 3) in combination were employed for tumorsphere assay followed by the compound treatments. […] The results were confirmed using C3 and Wnt;UBC-Cre^ERT+/−;Mtdh^fl/fl tumorspheres (FIG. 11B-11E). Taken together, these findings confirmed that the anti-tumor effect of C26-A2 and A6 is dependent on their specific effect on blocking MTDH-SND1 interaction.

[4] = test system: PyMT tumor cells with Mtdh KO or Snd1 KD; experiment: Tumorsphere assay, PyMT;UBC-CreERT+/-;Mtdhfl/fl cells with Mtdh KO or Snd1 KD; assay type: cell-based, mouse; settings: Mtdh KO (4-OHT pre-treatment) or Snd1 KD
Experimental: FIG. 4D, PyMT;UBC-Cre^ERT+/−;Mtdh^fl/fl cells with 5 days of 0.02 μg/ml 4-OHT pre-treatment was employed for tumorsphere assay. 50 k per well of cells were seed and treated with indicated compounds the next day. 5 days after treatment, sphere number and size were assessed and normalized to vehicle control group. Data represent mean±SEM. n=3 independent experiments. Significance determined by one-way ANOVA analysis with Sidak's test for multiple comparisons.
FIG. 4E, PyMT;UBC-Cre^ERT+/−;Mtdh^fl/fl cells with or without SND1 knockdown, or without 5 days of 0.02 μg/ml 4-OHT pre-treatment were subjected to the tumorsphere assay and then treated with 200 μM of C26-A6 similar to FIG. 4C. Data represent mean SEM. n=3 independent experiments. Significance determined by two tailed Student's t-test.
FIG. 4F, PyMT;UBC-Cre^ERT+/−;Mtdh^fl/fl cells with or without SND1 knockdown, or with 5 days of 0.02 μg/ml 4-OHT pre-treatment were subjected to the tumorsphere assay and then treated with 200 μM of C26-A6 similar to FIG. 4C. Data represent mean±SEM. n=3 independent experiments. Significance determined by two tailed Student's t-test.
Next, PyMT; UBC-Cre^ERT+/−;Mtdh^fl/fl tumor cells: 1) with or without Mtdh pre-depletion; 2) with or without endogenous Snd1 knockdown; or 3) in combination were employed for tumorsphere assay followed by the compound treatments. […]

[5] = biological target: T1, MTDH-SND1 interaction (split-luc) in SCP28 cells (Homo sapiens, UniProt Q7KZF4); experiment: Split-luciferase reporter in living SCP28 cells; assay type: cell-based; settings: for blocking efficiency over time (stability of the compounds in cells): 100 μM, 5 days after the addition; for split-luc activity in living cells: multiple doses, 30 min after treatment
T1 construct: SND1-NLuc and CLuc-MTDH flanked by BamH 1 and Not 1 restriction sites were inserted into pcDNA3.1 and pRVPTO (retrovrial) vectors; expressed in transfected cells; host or cells: SCP28 cells stably transduced with pRVPTO retroviral vectors (packaged in H29 cells)
Experimental: FIG. 4A, SCP28 cells that stably express split- or linked-luciferase components were treated with multiple doses of C26-A2 or C26-A6. 30 minutes (min) after treatment, culture media was removed and the luciferase activity in the cells was measured. Data represent mean±SEM. n=3 independent experiments.
FIG. 4B, The same cells as in FIG. 4A were treated with 100 μM of the compounds for indicated days, and were harvested to measure the luciferase activity. Data represent mean±SEM. n=3 independent experiments.
C26s inhibit breast cancer progression and metastasis. C26-A2 and A6 were picked for the functional test. To this end, it was tested whether C26-A2 and A6 could inhibit breast cancer progression. […] Next, SCP28 breast cancer cells that were engineered to express split- or linked-luciferase reporter were treated with C26-A2 or A6.

SCP28 xenograft tumor = SCP28 xenograft tumor model in NSG mice; assay type: in vivo; settings: 8 weeks treatment
Experimental: FIG. 13A, NGS female mice injected with 2 k SCP28 cells orthotopically were subjected to vehicle or C26-A6 treatment after two weeks. Primary tumor volumes were measured.
FIG. 13B, 8 weeks after treatment, tumor mass was assessed. Vehicle, n=10 mice; C26-A6, n=10 mice. Size bar, 2 cm.
FIG. 13C, 8 weeks after treatment, lung metastasis was assessed. Vehicle, n=10 mice; C26-A6, n=10 mice. Size bar, 5 mm.

T1 sequence (Q7KZF4 with tags, fused parts or gaps): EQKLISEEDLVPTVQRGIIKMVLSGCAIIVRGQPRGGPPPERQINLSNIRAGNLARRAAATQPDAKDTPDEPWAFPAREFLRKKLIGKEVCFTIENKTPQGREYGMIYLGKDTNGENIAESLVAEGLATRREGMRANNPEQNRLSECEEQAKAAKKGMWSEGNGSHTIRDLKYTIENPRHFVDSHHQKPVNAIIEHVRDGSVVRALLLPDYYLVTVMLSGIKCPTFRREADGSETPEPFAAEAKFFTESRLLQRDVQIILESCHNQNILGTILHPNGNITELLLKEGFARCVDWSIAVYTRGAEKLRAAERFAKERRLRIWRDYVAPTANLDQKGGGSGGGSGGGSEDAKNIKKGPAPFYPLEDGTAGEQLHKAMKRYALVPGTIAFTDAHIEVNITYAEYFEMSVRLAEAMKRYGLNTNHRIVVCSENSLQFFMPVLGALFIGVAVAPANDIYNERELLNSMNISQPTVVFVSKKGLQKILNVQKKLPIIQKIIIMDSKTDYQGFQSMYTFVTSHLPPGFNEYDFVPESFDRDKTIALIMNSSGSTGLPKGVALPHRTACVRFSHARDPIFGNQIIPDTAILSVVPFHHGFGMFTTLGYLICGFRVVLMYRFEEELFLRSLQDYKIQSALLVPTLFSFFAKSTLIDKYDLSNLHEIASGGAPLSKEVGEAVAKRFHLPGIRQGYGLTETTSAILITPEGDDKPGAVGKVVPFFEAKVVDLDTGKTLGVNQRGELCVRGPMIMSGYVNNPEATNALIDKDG

| Structure (SMILES) | cell permeability (Caco-2 cells) | tumorsphere formation (sphere number and size) [1] | tumorsphere formation (sphere number and size) [2] | tumorsphere formation (sphere number and size) [3] | tumorsphere formation (sphere number and size) [4] | blocking efficiency over time (stability of the compounds in cells) [5] | split-luc activity in living cells [5] | primary tumor growth and lung metastasis (SCP28 xenograft tumor) |
| --- | --- | --- | --- | --- | --- | --- | --- | --- |
| COc1ccc(Cl)cc1S(=O)(=O)Nc1cccn2ncnc12 [Analog C26-A2] | highly permeable | confirmed | confirmed | inhibited spheres | no effects | not significantly changed | inhibited split-luc activity in living cells in a dose dependent manner | – |
| COc1ccc(Cl)cc1S(=O)(=O)Nc1cccn2nc(C)nc12 [Analog C26-A6] | highly permeable | confirmed | confirmed | inhibited spheres | no effects | not significantly changed | inhibited split-luc activity in living cells in a dose dependent manner | confirmed |
